Where a SMILES comes first, the peptide text is derived from it. Bridges are numbered along the chain shown (N, C = ends). [ ]: non-standard residue; d: D form. The star is where a group is joined. hPhe(3-Cl-4-CF3) = N[C@@H](CCc1ccc(C(F)(F)F)c(Cl)c1)C(=O)O; NPrPhe(4-CF3) = CCCN[C@@H](Cc1ccc(C(F)(F)F)cc1)C(=O)O; NMeGly(cPent) = CN[C@H](C(=O)O)C1CCCC1; Pro(4,4-Me2) = CC1(C)CN[C@H](C(=O)O)C1; Pro(4S-Me) = C[C@@H]1CN[C@H](C(=O)O)C1; NMeD = CN[C@@H](CC(=O)O)C(=O)O; NMeL = CN[C@@H](CC(C)C)C(=O)O; Morpholide = C1CN(*)CCO1; NMeA = CN[C@@H](C)C(=O)O; Ac5c = NC1(C(=O)O)CCCC1; Aze = O=C(O)[C@@H]1CCN1; Sar = CNCC(=O)O
Columns and labels:
[1] = target: GDP-bound NRAS wild-type protein (Homo sapiens, UniProt P01111); experiment: Binding to NRAS by surface plasmon resonance (SPR), Single Cycle Kinetics; settings: KD ratio NRAS/KRAS, SPR
[2] = target: GDP-bound HRAS wild-type protein (Homo sapiens, UniProt P01112); experiment: Binding to HRAS by surface plasmon resonance (SPR), Single Cycle Kinetics; settings: KD ratio HRAS/KRAS, SPR
GDP-bound HRAS wild-type protein, sequence (P01112 whole entry): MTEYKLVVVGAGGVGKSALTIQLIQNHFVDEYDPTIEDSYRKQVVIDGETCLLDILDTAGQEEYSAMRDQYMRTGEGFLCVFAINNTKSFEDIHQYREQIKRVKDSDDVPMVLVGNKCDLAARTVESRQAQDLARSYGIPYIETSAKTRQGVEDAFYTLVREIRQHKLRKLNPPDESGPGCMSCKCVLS

GDP-bound NRAS wild-type protein, sequence (P01111 whole entry): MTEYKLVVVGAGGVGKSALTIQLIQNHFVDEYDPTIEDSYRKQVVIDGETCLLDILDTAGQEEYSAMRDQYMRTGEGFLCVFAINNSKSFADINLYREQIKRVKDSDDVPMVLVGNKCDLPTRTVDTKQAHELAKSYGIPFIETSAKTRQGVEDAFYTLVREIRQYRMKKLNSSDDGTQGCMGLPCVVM

| Compound | NRAS/KRAS (ratio of KD value with respect to GDP-bound NRAS wild-type protein to KD value with respect to KRAS) [1] | HRAS/KRAS (ratio of KD value with respect to GDP-bound HRAS wild-type protein to KD value with respect to KRAS) [2] |
| --- | --- | --- |
| CCCN1C(=O)[C@@H]2CCN2C(=O)[C@H](C)N(C)C(=O)[C@H]([C@@H](C)CC)NC(=O)[C@H](CC(C)C)N(C)C(=O)C[C@@H](C(=O)N2CCOCC2)N(C)C(=O)[C@H](C2CCCC2)N(C)C(=O)C2(CCCC2)NC(=O)[C@@H]2CC(C)(C)CN2C(=O)[C@H](CCc2ccc(C(F)(F)F)c(Cl)c2)NC(=O)CN(C)C(=O)[C@@H]1Cc1ccc(C(F)(F)F)cc1 [PP0454] ([NMeL]I[NMeA][Aze][NPrPhe(4-CF3)][Sar][hPhe(3-Cl-4-CF3)][Pro(4,4-Me2)][Ac5c][NMeGly(cPent)][NMeD]-Morpholide; lactam N-11) | C (A compound having a KD ratio of 0.1 or more and less than 3 is denoted as C) | C (A compound having a KD ratio of 0.1 or more and less than 3 is denoted as C) |
| CCCN1C(=O)[C@@H]2CCN2C(=O)CN(C)C(=O)[C@H]([C@@H](C)CC)NC(=O)[C@H](CC(C)C)N(C)C(=O)C[C@@H](C(=O)N2CCOCC2)N(C)C(=O)[C@H](C2CCCC2)N(C)C(=O)C2(CCCC2)NC(=O)[C@@H]2CC(C)(C)CN2C(=O)[C@H](CCc2ccc(C(F)(F)F)c(Cl)c2)NC(=O)CN(C)C(=O)[C@@H]1Cc1ccc(C(F)(F)F)cc1 [PP0456] ([NMeL]I[Sar][Aze][NPrPhe(4-CF3)][Sar][hPhe(3-Cl-4-CF3)][Pro(4,4-Me2)][Ac5c][NMeGly(cPent)][NMeD]-Morpholide; lactam N-11) | C (A compound having a KD ratio of 0.1 or more and less than 3 is denoted as C) | C (A compound having a KD ratio of 0.1 or more and less than 3 is denoted as C) |
| CCCN1C(=O)[C@@H]2CCN2C(=O)CN(C)C(=O)[C@H]([C@@H](C)CC)NC(=O)[C@H](CC(C)C)N(C)C(=O)C[C@@H](C(=O)N2CCOCC2)N(C)C(=O)[C@H](C2CCCC2)N(C)C(=O)C2(CCCC2)NC(=O)[C@@H]2C[C@H](C)CN2C(=O)[C@H](CCc2ccc(C(F)(F)F)c(Cl)c2)NC(=O)CN(C)C(=O)[C@@H]1Cc1ccc(C(F)(F)F)cc1 [PP0457] ([NMeL]I[Sar][Aze][NPrPhe(4-CF3)][Sar][hPhe(3-Cl-4-CF3)][Pro(4S-Me)][Ac5c][NMeGly(cPent)][NMeD]-Morpholide; lactam N-11) | C (A compound having a KD ratio of 0.1 or more and less than 3 is denoted as C) | B (a compound having 3 or more and less than 10 is denoted as B) |
| CC[C@H](C)[C@@H]1NC(=O)[C@H](CC(C)C)N(C)C(=O)C[C@@H](C(=O)N2CCOCC2)N(C)C(=O)[C@H](C2CCCC2)N(C)C(=O)C2(CCCC2)NC(=O)[C@@H]2CCCN2C(=O)[C@H](CCc2ccc(C(F)(F)F)c(Cl)c2)NC(=O)CN(C)C(=O)[C@H](Cc2ccc(C)cc2)N2CC=CC[C@@H](C2=O)N(C)C(=O)CN(C)C1=O [PP0460] | C (A compound having a KD ratio of 0.1 or more and less than 3 is denoted as C) | C (A compound having a KD ratio of 0.1 or more and less than 3 is denoted as C) |
| CC[C@H](C)[C@@H]1NC(=O)[C@H](CC(C)C)N(C)C(=O)C[C@@H](C(=O)N2CCOCC2)N(C)C(=O)[C@H](C2CCCC2)N(C)C(=O)C2(CCCC2)NC(=O)[C@@H]2CCCN2C(=O)[C@H](CCc2ccc(C(F)(F)F)c(Cl)c2)NC(=O)CN(C)C(=O)[C@H](Cc2ccc(C)cc2)N2CC/C=C\C[C@@H](C2=O)N(C)C(=O)CN(C)C1=O [PP0461] | A (a compound having 10 or more and less than 20 is denoted as A) | A (a compound having 10 or more and less than 20 is denoted as A) |
| CC[C@H](C)[C@@H]1NC(=O)[C@H](CC(C)C)N(C)C(=O)C[C@@H](C(=O)N2CCOCC2)N(C)C(=O)[C@H](C2CCCC2)N(C)C(=O)C2(CCCC2)NC(=O)[C@@H]2CCCN2C(=O)[C@H](CCc2ccc(C(F)(F)F)c(Cl)c2)NC(=O)CN(C)C(=O)[C@H](Cc2ccc(C(F)(F)F)cc2)N2CC=CC[C@@H](C2=O)N(C)C(=O)CN(C)C1=O [PP0462] | C (A compound having a KD ratio of 0.1 or more and less than 3 is denoted as C) | C (A compound having a KD ratio of 0.1 or more and less than 3 is denoted as C) |
| CC[C@H](C)[C@@H]1NC(=O)[C@H](CC(C)C)N(C)C(=O)C[C@@H](C(=O)N2CCOCC2)N(C)C(=O)[C@H](C2CCCC2)N(C)C(=O)C2(CCCC2)NC(=O)[C@@H]2CCCN2C(=O)[C@H](CCc2ccc(C(F)(F)F)c(Cl)c2)NC(=O)CN(C)C(=O)[C@H](Cc2ccc(C(F)(F)F)cc2)N2CC/C=C\C[C@@H](C2=O)N(C)C(=O)CN(C)C1=O [PP0463] | A (a compound having 10 or more and less than 20 is denoted as A) | A (a compound having 10 or more and less than 20 is denoted as A) |
| CC[C@H](C)[C@@H]1NC(=O)[C@H](CC(C)C)N(C)C(=O)C[C@@H](C(=O)N(C)C)N(C)C(=O)[C@H](C2CCCC2)N(C)C(=O)C2(CCCC2)NC(=O)[C@@H]2CC(F)(F)CN2C(=O)[C@H](CCc2cc(F)c(C(F)(F)F)c(F)c2)NC(=O)CN(C)C(=O)[C@H](Cc2ccc(C(F)(F)F)cc2)N2CCCCC[C@@H](C2=O)N(C)C(=O)CN(C)C1=O [PP0465] | B (a compound having 3 or more and less than 10 is denoted as B) | B (a compound having 3 or more and less than 10 is denoted as B) |
| CC[C@H](C)[C@@H]1NC(=O)[C@H](CC(C)C)N(C)C(=O)C[C@@H](C(=O)N(C)C)N(C)C(=O)[C@H](C2CCCC2)N(C)C(=O)C2(CCC2)NC(=O)[C@@H]2CC(F)(F)CN2C(=O)[C@H](CCc2cc(F)c(C(F)(F)F)c(F)c2)NC(=O)CN(C)C(=O)[C@H](Cc2ccc(C(F)(F)F)cc2)N2CCCCC[C@@H](C2=O)N(C)C(=O)CN(C)C1=O [PP0466] | B (a compound having 3 or more and less than 10 is denoted as B) | B (a compound having 3 or more and less than 10 is denoted as B) |
| CCO[C@@H]1C[C@H]2C(=O)NC3(CCC3)C(=O)N(C)[C@@H](C3CCCC3)C(=O)N(C)[C@H](C(=O)N3CCOCC3)CC(=O)N(C)[C@@H](CC(C)C)C(=O)N[C@@H]([C@@H](C)CC)C(=O)N(C)CC(=O)N(C)[C@H]3CCCCCN(C3=O)[C@@H](Cc3ccc(C(F)(F)F)cc3)C(=O)N(C)CC(=O)N[C@@H](CCc3cc(F)c(C(F)(F)F)c(F)c3)C(=O)N2C1 [PP0467] | B (a compound having 3 or more and less than 10 is denoted as B) | B (a compound having 3 or more and less than 10 is denoted as B) |
| CCO[C@@H]1C[C@H]2C(=O)NC3(CCCC3)C(=O)N(C)[C@@H](C3CCCC3)C(=O)N(C)[C@H](C(=O)N(C)C)CC(=O)N(C)[C@@H](CC(C)C)C(=O)N[C@@H]([C@@H](C)CC)C(=O)N(C)CC(=O)N(C)[C@H]3CCCCCN(C3=O)[C@@H](Cc3ccc(C(F)(F)F)cc3)C(=O)N(C)CC(=O)N[C@@H](CCc3cc(F)c(C(F)(F)F)c(F)c3)C(=O)N2C1 [PP0468] | B (a compound having 3 or more and less than 10 is denoted as B) | B (a compound having 3 or more and less than 10 is denoted as B) |
| CCO[C@@H]1C[C@H]2C(=O)NC3(CCC3)C(=O)N(C)[C@@H](C3CCCC3)C(=O)N(C)[C@H](C(=O)N(C)C)CC(=O)N(C)[C@@H](CC(C)C)C(=O)N[C@@H]([C@@H](C)CC)C(=O)N(C)CC(=O)N(C)[C@H]3CCCCCN(C3=O)[C@@H](Cc3ccc(C(F)(F)F)cc3)C(=O)N(C)CC(=O)N[C@@H](CCc3cc(F)c(C(F)(F)F)c(F)c3)C(=O)N2C1 [PP0469] | B (a compound having 3 or more and less than 10 is denoted as B) | B (a compound having 3 or more and less than 10 is denoted as B) |
| CC[C@H](C)[C@@H]1NC(=O)[C@H](C)N(C)C(=O)C[C@@H](C(=O)N(C)C)N(C)C(=O)[C@H](C2CCCC2)N(C)C(=O)C2(CCC2)NC(=O)[C@@H]2CCCN2C(=O)[C@H](CCc2cc(F)c(C(F)(F)F)c(F)c2)NC(=O)CN(C)C(=O)[C@H](Cc2ccc(C(F)(F)F)cc2)N2CCCCC[C@@H](C2=O)N(C)C(=O)CN(C)C1=O [PP0470] | B (a compound having 3 or more and less than 10 is denoted as B) | B (a compound having 3 or more and less than 10 is denoted as B) |
| CC[C@H](C)[C@@H]1NC(=O)[C@H](C)N(C)C(=O)C[C@@H](C(=O)N2CCOCC2)N(C)C(=O)[C@H](C2CCCC2)N(C)C(=O)C2(CCC2)NC(=O)[C@@H]2CC(F)(F)CN2C(=O)[C@H](CCc2cc(F)c(C(F)(F)F)c(F)c2)NC(=O)CN(C)C(=O)[C@H](Cc2ccc(C(F)(F)F)cc2)N2CCCCC[C@@H](C2=O)N(C)C(=O)CN(C)C1=O [PP0471] | B (a compound having 3 or more and less than 10 is denoted as B) | B (a compound having 3 or more and less than 10 is denoted as B) |
| CC[C@H](C)[C@@H]1NC(=O)[C@H](C)N(C)C(=O)C[C@@H](C(=O)N(C)C)N(C)C(=O)[C@H](C2CCCC2)N(C)C(=O)C2(CCCC2)NC(=O)[C@@H]2CC(F)(F)CN2C(=O)[C@H](CCc2cc(F)c(C(F)(F)F)c(F)c2)NC(=O)CN(C)C(=O)[C@H](Cc2ccc(C(F)(F)F)cc2)N2CCCCC[C@@H](C2=O)N(C)C(=O)CN(C)C1=O [PP0472] | B (a compound having 3 or more and less than 10 is denoted as B) | B (a compound having 3 or more and less than 10 is denoted as B) |

Source: US20250230193A1, “CYCLIC COMPOUND HAVING SELECTIVE KRAS INHIBITORY EFFECT ON HRAS AND NRAS” (CHUGAI SEIYAKU KABUSHIKI KAISHA, priority 2022, published 2025)
